Experimental data reported in patent US20060177444A1, “Concomitant drug as therapeutic agent for inflammatory bowel disease” (priority 2003, published 2006).

Test system: male Balb/c mice
Test: TNBS-induced experimental colitis in mice, lesion length of the colon
Format: in vivo
Settings: for improvement of colitis compared with combination administration, in words: single administration at a dose higher than that in the combination administration
Method: A total of 0.08 ml of a 1:1 (v/v) mixture of 10% picrylsulfonic acid (TNBS) solution and ethanol was administered to anesthetized male Balb/c mice (Charles River Japan, Inc., Yokohama, Japan) according to previous reports (J Exp Med 2001; 193: p 827-38, J Exp Med 2001; 193: p 25-34) to thereby induce experimental colitis. The colon (large intestine) was sampled two days later, and the length of a flare site accompanied with ulcer or hyperplasia near to the lumen was measured and was defined as the lesion length. The inhibition (%) was calculated from the average lesion length of a treated group, compared with the average lesion length of a control group. The test compound suspended in a 0.5% solution of methylcellulose was orally administered to the mice via sonde once a day from two days before the beginning of colitis induction.

Compound | Inhibiton (%) of average lesion length (Sulfasalazine 100 mg/kg/day, oral, single administration (Table 3)) | Inhibiton (%) of average lesion length (Sulfasalazine 300 mg/kg/day, oral, single administration) | Inhibiton (%) of average lesion length (Table 5: Sulfasalazine 100 mg/kg/day alone) | improvement of colitis, in words (single administration) | improvement of colitis compared with combination administration, in words | Inhibition (%) of average lesion length (Compound 1 0.3 mg/kg/day, oral, once a day) | Inhibition (%) of average lesion length (Compound 1 1 mg/kg/day, oral, once a day) | Inhibition (%) of average lesion length (Compound 1 3 mg/kg/day, oral, once a day (Table 2)) | Inhibition (%) of average lesion length (Compound 1 10 mg/kg/day, oral, once a day) | Inhibiton (%) of average lesion length (Table 5: Compound 1 3 mg/kg/day alone) | Inhibition (%) of average lesion length (Rosiglitazone 1 mg/kg/day, oral, once a day, single administration) | Inhibition (%) of average lesion length (Rosiglitazone 10 mg/kg/day, oral, once a day, single administration)
O=C(O)c1cc(N=Nc2ccc(S(=O)(=O)Nc3ccccn3)cc2)ccc1O [Sulfasalazine, 2-hydroxy-5-[[4-[(2-pyridinylamino)sulfonyl]phenyl]-azo]benzoic acid] | 40% | 35% | 43% | partially improves colitis | improves colitis less effectively |  |  |  |  |  |  | 
CC(C)O[C@@H](Cc1cccc(CNC(=O)OCc2cccc(OC(F)(F)F)c2)c1)C(=O)O [Compound 1, 3-(3-{[3-trifluoromethoxybenzyloxycarbonylamino]methyl}phenyl)-2(S)-isopropoxypropanoic acid] |  |  |  | partially improves colitis | improves colitis less effectively | 8% | 21% | 38% | 34% | 29% |  | 
CN(CCOc1ccc(CC2SC(=O)NC2=O)cc1)c1ccccn1 (centres unmarked) [Rosiglitazone, rosiglitazone] |  |  |  |  |  |  |  |  |  |  | 23% | 37%
